Assays:
[1] = tested on: MEK/ERK signaling pathway; experiment: Western blot of MEK/ERK phosphorylation in EV71-infected Vero cells; assay type: cell-based, African green monkey; conditions: EV71 H, MOI = 0.1; 24 h treatment
Text: The activation of the MEK/ERK signaling pathway has been certified to play an essential role in EV71 life cycle and pathogenesis in various cell types. […] To learn whether or not 2d would still act through MEK/ERK pathway as its parent BBR does, the inhibition experiment of EV71 via this signaling pathway was done with 2d using BBR as the reference. […] We can conclude that compound 2d inhibited the replication of EV71 through down-regulating MEK/ERK signaling pathway.
(§1) Cells were lysed in the M-PER mammalian protein extraction reagent (Thermo, Rockford, IL, USA) containing halt protease inhibitor single-use cocktail (Thermo). The protein concentration was determined by BCA Protein Assay Kit (Thermo). Equal amount of samples (15 μg proteins) were denatured and applied to sodium dodecyl sulfate-polyacrylamide gel electrophoresis (SDS-PAGE), and then electrophoresis products were transferred to a polyvinylidenefluoride (PVDF) film and blocked by 5% (w/v) milk or BSA at room temperature. An hour later, PVDF membranes were incubated at room temperature with specific primary antibody. After a standard washing, membranes were incubated with horse radish peroxidase (HRP)-labeled secondary antibody. The signals were detected using ECL detection kit (GE Healthcare Life Sciences, Pittsburgh, PA, USA). […]

EV71 VP1 RNA = EV71 VP1 RNA by one-step qRT-PCR in infected Vero cells; assay type: cell-based, enterovirus 71 (EV71); conditions: Vero cells infected with H strain; 24 h; better than BBR
Description: (§2) To further confirm the anti-EV71 activity, the VP1 down-regulatory activity of 2d was examined in Vero cells infected with H strain of EV71, in comparison with that of BBR. […] Accordingly, VP1 capsid protein expression was also analyzed to examine its effect on EV71 biological synthesis.
Vero cells (9 × 10^5 cells/well) were plated into 6-well culture plates and incubated for 16 h. The medium was removed and cells were infected with EV71 for 1 h (H). Various concentrations of compound 2d and BBR were supplemented for incubation of another 24 h. Total RNA of the infected cells was isolated using the RNeasy Mini kit (QIAGEN, Hilden, Germany) and the information of the primer was listed in the Table 2.
One-step qRT-PCR was performed with SuperScript III Platinum SYBR Green One-step RT-PCR Kit (Invitrogen, Carlsbad, CA, USA) using the ABI 7500 Fast real-time PCR system (Applied Biosystems, Carlsbad, CA, USA). PCR assay was carried out in a 25 μL volume and the target fragment amplification was carried out as follows: reverse transcription at 50 °C for 3 min; initial activation of HotStar Taq DNA Polymerase at 95 °C for 10 min; 40 cycles in two steps: 95 °C for 15 s, 60 °C for 30 s.

[2] = tested on: EV71 SHZH98 strain (genotype C4); experiment: CPE inhibition assay for anti-EV71, SHZH98 strain; assay type: cell-based, enterovirus 71 (EV71); conditions: Enterovirus A, EV71; Vero cells; CPE; calculated on the organic part; n = 3; read-out: SHZH98 Strain IC50
Procedure, shortened: (§3)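 Vero cells infected with 100 × TCID50 EV71 for 1 h at 37 °C in serum-free medium, unbound virus removed, then compounds added for 72 h. IC50 from inhibition of virus-induced CPE; TC50 as concentration giving 50% CPE at 72 h, with selectivity index; crystal violet staining for imaging.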

EV71 VP1 protein = EV71 VP1 protein by western blot in infected Vero cells; assay type: cell-based, enterovirus 71 (EV71); conditions: Vero cells infected with H strain; better than BBR at 40 μM
Description: as §2
as §1, with “USA). The primary antibodies used in the experiment included β-actin, p-p44/p42 MAPK, p44/p42 MAPK, p-MEK, MEK, p-JNK, JNK, p-AKT, AKT, PI3KIII, LC3B, Beclin-1 (Cell Signaling Technology, Danvers, MA, USA), and EV71-VP1 (Abnova, Taibei, China).” for “USA).”

[3] = tested on: EV71 JS-52 strain (genotype C4); experiment: CPE inhibition assay for anti-EV71, JS-52 strain; assay type: cell-based, enterovirus 71 (EV71); conditions: Enterovirus A, EV71; Vero cells; CPE; calculated on the organic part; n = 3; read-out: JS-52 Strain IC50
Procedure, shortened: as §3

Vero cells = experiment: Cytotoxicity assay (CCK) in Vero cells; assay type: cell-based, African green monkey
Procedure, shortened: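 Vero cells seeded at 3 × 10^4 cells/well were exposed overnight-plated to a range of compound concentrations in duplicate for 48 h. Viability was measured by CCK at 450 nm. TC50 is the concentration giving 50% growth inhibition versus controls, calculated by the Reed and Muench method.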

Compound: COc1ccc2cc3[n+](cc2c1OCC(=O)OCc1ccccc1)CCc1cc2c(cc1-3)OCO2 [2d, 2,3-Methylenedioxy-9-benzyloxyformylmethylenoxy-10-methoxyprotoberberine chloride]
- phosphorylation of MEK and ERK induced by EV71 infection [1]: significantly inhibit the phosphorylation of both MEK and ERK
- VP1 RNA expression (EV71 VP1 RNA): significantly reduced VP1 RNA expression in a dose-dependently way
- IC50 [2]: 14.8 µM
- VP1 protein expression (EV71 VP1 protein): obviously down-regulate the expression of VP1 protein in a dose-dependent manner
- IC50 [3]: 7.12 µM
- cytotoxicity, in words (Vero cells): lower cytotoxicity
- TC50 (median toxic concentration) (Vero cells; African green monkey, 48 h): 82.8 µM

— PMC6222558, “Synthesis and Evolution of Berberine Derivatives as a New Class of Antiviral Agents against Enterovirus 71 through the MEK/ERK Pathway and Autophagy” (Molecules : A Journal of Synthetic Chemistry and Natural …, 2018)
